Assay results from patent US20240285634A1, “COMPOUND AND METHOD FOR TREATING CHEMOTHERAPY-ASSOCIATED GASTROINTESTINAL SIDE EFFECTS” (ONQUALITY PHARMACEUTICALS CHINA LTD., priority 2021, published 2024).

Tested on: Chemotherapeutic agent-caused diarrhea models of Balb/c mice
Assay: Relieving effect on diarrhea caused by a chemotherapeutic agent (Examples 1-201)
Assay type: in vivo
Excerpt: Construction of mouse animal models: Chemotherapeutic agent-caused diarrhea models of Balb/c mice were constructed according to the administration mode and frequency of the chemotherapeutic agent as shown in Table 3. After administration for several days, mice developed different extents of diarrhea symptoms (as shown in FIG. 1), which were similar to the conditions in human. Thus, chemotherapeutic agent-caused diarrhea models of mice are very good models to mimic diarrhea in human caused by the chemotherapeutic agent.
Balb/c mice were fed for 1 week, and then divided into groups. The experiment was divided into a control group, a chemotherapeutic agent group, and a group of the compound as shown in Formula I, each of which comprised 10 mice, to perform the administration experiment, for which the administration dosage, mode, time and frequency were shown in Table 3. The control group: being injected or intragastrically administered with the same solvent as that used in the group of the compound as shown in Formula I (the injection mode and time were shown in Table 3), and then being injected or intragastrically administered with the same solvent as that used in the chemotherapeutic agent group (the administration mode was shown in Table 3); the chemotherapeutic agent group: being injected or intragastrically administered with the same solvent as that used in the group of the compound as shown in Formula I (the administration mode and time were shown in Table 3), and then being injected or intragastrically administered with the chemotherapeutic agent (the type, administration mode and dosage were shown in Table 3); the group of the compound as shown in Formula I: being injected or intragastrically administered with the compound as shown in Formula I (the administration mode and time were shown in Table 3), and then being administered with the chemotherapeutic agent (the administration mode and dosage were shown in Table 3).
The scoring of diarrhea can refer to the method of Akinobu Kurita (Cancer Chemother Pharmacol 2000; 46:211-20.), Grade 0: normal feces; Grade 1: mild diarrhea, the stools is slightly wet and soft; Grade 2: moderate diarrhea, loose stools and mild perianal contamination; Grade 3: severe diarrhea, watery stools and accompanied by severe perianal staining (see FIG. 1). It is regarded as effective remission when the diarrhea grading of mice in the group of the compound as shown in Formula I is reduced compared with the average diarrhea grading of mice in the chemotherapeutic agent group.
The diarrhea grading of mice was observed and recorded every day. At the end of the experiment, the number of mice in the group of the compound as shown in Formula I whose diarrhea grading was lower than that of mice in the chemotherapeutic agent group was recorded. Table 3 lists various animal experiment combinations of chemotherapeutic agents and the compound as shown in Formula I, as well as the corresponding experimental results. (Relative remission rate %=the number of mice in the group of the compound as shown in Formula I whose diarrhea has been effectively relieved/the total number of mice in the group of the compound as shown in Formula I*100%. The establishment rate of diarrhea model in the chemotherapeutic agent group was 50%-70%, that is, about 5-7 of 10 mice developed diarrhea during the experiment, and there were cases of individual mice death or not developing diarrhea.)

## CN1CCN(c2ccc(Nc3ncc4cc5n(c4n3)C3(CCCCC3)CNC5=O)nc2)CC1 [Compound I, Trilaciclib]
Ex 1, 5-Fu 125 mg/kg intraperitoneal single, compound 100 mg/kg intravenous single 0.5 h before, cycle 10 days
  Relative remission rate: 70%
Ex 2, 5-Fu 125 mg/kg intraperitoneal single, compound 100 mg/kg intravenous single 1 h before, cycle 10 days
  Relative remission rate: 70%
Ex 3, 5-Fu 125 mg/kg intraperitoneal single, compound 100 mg/kg intravenous single 2 h before, cycle 10 days
  Relative remission rate: 60%
Ex 4, 5-Fu 125 mg/kg intraperitoneal single, compound 100 mg/kg intravenous single 3 h before, cycle 10 days
  Relative remission rate: 60%
Ex 5, 5-Fu 125 mg/kg intraperitoneal single, compound 100 mg/kg intravenous single 4 h before, cycle 10 days
  Relative remission rate: 60%
Ex 6, 5-Fu 125 mg/kg intraperitoneal single, compound 100 mg/kg intravenous single 5 h before, cycle 10 days
  Relative remission rate: 40%
Ex 7, 5-Fu 125 mg/kg intraperitoneal single, compound 100 mg/kg intravenous single 6 h before, cycle 10 days
  Relative remission rate: 40%
Ex 8, 5-Fu 125 mg/kg intraperitoneal single, compound 100 mg/kg intravenous single 7 h before, cycle 10 days
  Relative remission rate: 40%
Ex 9, 5-Fu 125 mg/kg intraperitoneal single, compound 100 mg/kg intravenous single 8 h before, cycle 10 days
  Relative remission rate: 50%
Ex 10, 5-Fu 125 mg/kg intraperitoneal single, compound 100 mg/kg intravenous single 9 h before, cycle 10 days
  Relative remission rate: 40%
Ex 11, 5-Fu 125 mg/kg intraperitoneal single, compound 100 mg/kg intravenous single 10 h before, cycle 10 days
  Relative remission rate: 50%
Ex 12, 5-Fu 125 mg/kg intraperitoneal single, compound 100 mg/kg intravenous single 11 h before, cycle 10 days
  Relative remission rate: 40%
Ex 13, 5-Fu 125 mg/kg intraperitoneal single, compound 12.5 mg/kg intravenous single 12 h before, cycle 10 days
  Relative remission rate: 30%
Ex 14, 5-Fu 125 mg/kg intraperitoneal single, compound 25 mg/kg intravenous single 12 h before, cycle 10 days
  Relative remission rate: 40%
Ex 15, 5-Fu 125 mg/kg intraperitoneal single, compound 50 mg/kg intravenous single 12 h before, cycle 10 days
  Relative remission rate: 60%
Ex 16, 5-Fu 125 mg/kg intraperitoneal single, compound 100 mg/kg intravenous single 12 h before, cycle 10 days
  Relative remission rate: 70%
Ex 17, 5-Fu 125 mg/kg intraperitoneal single, compound 150 mg/kg intravenous single 12 h before, cycle 10 days
  Relative remission rate: 50%
Ex 18, 5-Fu 125 mg/kg intraperitoneal single, compound 240 mg/kg intravenous single 12 h before, cycle 10 days
  Relative remission rate: 50%
Ex 86, Oxaliplatin 17.5 mg/kg intravenous single, compound 150 mg/kg intravenous single 20 h before, cycle 8 days
  Relative remission rate: 40%
Ex 87, Oxaliplatin 17.5 mg/kg intravenous single, compound 150 mg/kg intravenous single 24 h before, cycle 8 days
  Relative remission rate: 50%
Ex 88, Oxaliplatin 17.5 mg/kg intravenous single, compound 150 mg/kg intravenous single 48 h before, cycle 8 days
  Relative remission rate: 0%
Ex 92, Irinotecan (CPT-11) 240 mg/kg intraperitoneal single, compound 100 mg/kg intravenous single 0.5 h before, cycle 7 days
  Relative remission rate: 50%
Ex 93, Irinotecan (CPT-11) 240 mg/kg intraperitoneal single, compound 100 mg/kg intravenous single 1 h before, cycle 7 days
  Relative remission rate: 50%
Ex 94, Irinotecan (CPT-11) 240 mg/kg intraperitoneal single, compound 100 mg/kg intravenous single 2 h before, cycle 7 days
  Relative remission rate: 50%
Ex 95, Irinotecan (CPT-11) 240 mg/kg intraperitoneal single, compound 100 mg/kg intravenous single 3 h before, cycle 7 days
  Relative remission rate: 40%
Ex 96, Irinotecan (CPT-11) 240 mg/kg intraperitoneal single, compound 100 mg/kg intravenous single 4 h before, cycle 7 days
  Relative remission rate: 50%
Ex 97, Irinotecan (CPT-11) 240 mg/kg intraperitoneal single, compound 100 mg/kg intravenous single 5 h before, cycle 7 days
  Relative remission rate: 40%
Ex 98, Irinotecan (CPT-11) 240 mg/kg intraperitoneal single, compound 100 mg/kg intravenous single 6 h before, cycle 7 days
  Relative remission rate: 40%
Ex 99, Irinotecan (CPT-11) 240 mg/kg intraperitoneal single, compound 100 mg/kg intravenous single 7 h before, cycle 7 days
  Relative remission rate: 70%
Ex 100, Irinotecan (CPT-11) 240 mg/kg intraperitoneal single, compound 100 mg/kg intravenous single 8 h before, cycle 7 days
  Relative remission rate: 70%
Ex 101, Irinotecan (CPT-11) 240 mg/kg intraperitoneal single, compound 100 mg/kg intravenous single 9 h before, cycle 7 days
  Relative remission rate: 60%
Ex 102, Irinotecan (CPT-11) 240 mg/kg intraperitoneal single, compound 100 mg/kg intravenous single 10 h before, cycle 7 days
  Relative remission rate: 40%
Ex 103, Irinotecan (CPT-11) 240 mg/kg intraperitoneal single, compound 100 mg/kg intravenous single 11 h before, cycle 7 days
  Relative remission rate: 60%
Ex 104, Irinotecan (CPT-11) 240 mg/kg intraperitoneal single, compound 100 mg/kg intravenous single 12 h before, cycle 7 days
  Relative remission rate: 60%
Ex 105, Irinotecan (CPT-11) 240 mg/kg intraperitoneal single, compound 100 mg/kg intravenous single 14 h before, cycle 7 days
  Relative remission rate: 50%
Ex 106, Irinotecan (CPT-11) 240 mg/kg intraperitoneal single, compound 100 mg/kg intravenous single 16 h before, cycle 7 days
  Relative remission rate: 70%
Ex 107, Irinotecan (CPT-11) 240 mg/kg intraperitoneal single, compound 100 mg/kg intravenous single 18 h before, cycle 7 days
  Relative remission rate: 70%
Ex 108, Irinotecan (CPT-11) 240 mg/kg intraperitoneal single, compound 100 mg/kg intravenous single 20 h before, cycle 7 days
  Relative remission rate: 40%
Ex 109, Irinotecan (CPT-11) 240 mg/kg intraperitoneal single, compound 100 mg/kg intravenous single 22 h before, cycle 7 days
  Relative remission rate: 40%
Ex 110, Irinotecan (CPT-11) 240 mg/kg intraperitoneal single, compound 100 mg/kg intravenous single 24 h before, cycle 7 days
  Relative remission rate: 30%
Ex 111, Irinotecan (CPT-11) 240 mg/kg intraperitoneal single, compound 100 mg/kg intravenous single 48 h before, cycle 7 days
  Relative remission rate: 0%
Ex 118, Irinotecan (CPT-11) 300 mg/kg oral single, compound 100 mg/kg intraperitoneal single 12 h before, cycle 11 days
  Relative remission rate: 50%
Ex 119, Irinotecan (CPT-11) 250 mg/kg intramuscular single, compound 100 mg/kg intramuscular single 1 h before, cycle 7 days
  Relative remission rate: 70%
Ex 120, Irinotecan (CPT-11) 200 mg/kg intravenous single, compound 100 mg/kg intravenous single 0. h before, cycle 7 days
  Relative remission rate: 70%
Ex 121, Fluorouracil 100 + irinotecan 200 mg/kg intravenous single, compound 100 mg/kg intravenous single 0.5 h before, cycle 10 days
  Relative remission rate: 70%
Ex 122, Fluorouracil 100 + irinotecan 200 mg/kg intravenous single, compound 100 mg/kg intravenous single 4 h before, cycle 10 days
  Relative remission rate: 40%
Ex 123, Fluorouracil 100 + irinotecan 200 mg/kg intravenous single, compound 100 mg/kg intravenous single 8 h before, cycle 10 days
  Relative remission rate: 50%
Ex 124, Fluorouracil 100 + irinotecan 200 mg/kg intravenous single, compound 100 mg/kg intravenous single 12 h before, cycle 10 days
  Relative remission rate: 50%
Ex 125, Fluorouracil 100 + irinotecan 200 mg/kg intravenous single, compound 100 mg/kg intravenous single 24 h before, cycle 10 days
  Relative remission rate: 30%
Ex 126, Fluorouracil 100 + irinotecan 200 mg/kg intravenous single, compound 100 mg/kg intravenous single 48 h before, cycle 10 days
  Relative remission rate: 0%
Ex 127, Fluorouracil 100 + irinotecan 200 mg/kg intraperitoneal single, compound 100 mg/kg intraperitoneal single 1 h before, cycle 8 days
  Relative remission rate: 40%
Ex 128, Fluorouracil 100 + irinotecan 200 mg/kg intraperitoneal single, compound 100 mg/kg intraperitoneal single 12 h before, cycle 8 days
  Relative remission rate: 30%
Ex 129, Fluorouracil 100 + irinotecan 200 mg/kg intraperitoneal single, compound 150 mg/kg oral single 0.5 h before, cycle 8 days
  Relative remission rate: 40%
Ex 130, Fluorouracil 100 + irinotecan 200 mg/kg intraperitoneal single, compound 150 mg/kg oral single 12 h before, cycle 8 days
  Relative remission rate: 40%
